Experimental data reported in US20090099191A1, “INHIBITION OF NF-KB” (priority 2006, published 2009).

How the values were obtained:
[1] = tested on: variety of tumor cell types; assay: p53 activation and p53-dependent killing of tumor cell types; format: cell-based; conditions: besides RCC
[2] = tested on: p53 transactivation in RCC45ConALacZ cells; assay: RCC cell-based p53-responsive reporter (ConALacZ) screening
Excerpt: Reporter cell lines with p53 responsive β-galactosidase were described in Gurova, et al. (2004). Cancer Res 64, 1951-1958. Reporter cell lines with p53 responsive luciferase was generated by transfection of p21-ConALuc plasmid with following selection on G418. Reporter cell lines with NF-κB-dependent luciferase were obtained by cotransfection of pNF-κBLuc and pEGFP-mito (Clontech) plasmids followed by selection on G418 (marker provided by pEGFP-mito plasmid). Reporter cell lines with myc, or Clock/Bmal responsive reporters were kindly provided by C. Burkhart and M. Antoch (Cleveland Clinic Foundation, OH).
2×10^4 of RCC45ConALacZ cells were plated into wells of 96 well plates in 200 μL of phenol-red free RPMI medium with standard additives. […] After 3 hours of incubation at 37° C., β-galactosidase activity was estimated by reading absorbance values Wallack 1420 plate reader (Perkin Elmer) at λ=430 nm.
For cotransfection set-up, 2×10^5 cells were plated into 6 well plates and, after overnight incubation, transfected with Lipofectamin Plus reagent (Gibco BRL) with 0.5 μg of reporter plasmids (p21-ConALuc or pNF-κBLuc) in combination with different concentrations of p53, Arf, Ss-IκB, or siHDM2 expressing plasmids. […] Luminometric and colorimetric reactions were read on the Wallack 1420 plate reader (Perkin Elmer). […]

[3] = tested on: tumor and normal cells; assay: Toxicity to tumor versus normal cells; format: cell-based; conditions: in vitro and in vivo
Description: 5×10^3 of cells were plated in 6 well plates and treated with different concentrations of drugs for 24 hours. Then fresh drug-free medium was added. Number of colonies was estimated after 5-6 days of incubation. Cell survival was estimated as a percentage of intensity of methylene blue staining of treated cells, comparing with untreated control (methylene blue from stained colonies was extracted by 0.1% of SDS and quantitated spectrophotometrically).

[4] = tested on: DNA; assay: DNA damaging activity
[5] = tested on: DNA; conditions: intercalation; cited from earlier work
[6] = tested on: NF-κB; assay: NF-κB activity in tumor cells; format: cell-based

| Compound | p53-dependent killing [1] | p53 activation [1] | p53 reactivation relative to doxorubicin ([2]; RCC45 cells, library of 59 derivatives of compound 30d9, fold of p53 activation over the effect of 2 μM of doxorubicin (FIG. 3B)) | toxicity to tumor versus normal cells [3] | DNA damaging activity [4] | DNA binding affinity [5] | identified as p53 activator / hit in reporter screen ([2]; RCC45ConALacZ cell-based reporter assay) | effect on stimulated and basal constitutive NF-κB activity [6] |
| --- | --- | --- | --- | --- | --- | --- | --- | --- |
| CCN(CC)CCCC(C)Nc1c2ccc(Cl)cc2nc2ccc(OC)cc12 (stereo not drawn) [Quinacrine] | p53-dependent killing | capable of p53 activation | intermediate level of activity | more toxic to tumor than to normal cells | did not show DNA damaging activity |  |  |  |
| Cc1c2ccncc2c(C)c2c1[nH]c1ccccc12 [ellipticine] |  |  |  |  |  | 10^6 M^−1 | identified |  |
| Nc1c2ccccc2nc2ccccc12 [Compound 9AA, 9-aminoacridine] | p53-dependent killing | capable of p53 activation |  | more toxic to tumor than to normal cells | did not show DNA damaging activity |  |  | block stimulated NF-κB activity and also effectively reduce basal levels of constitutive NF-κB activity |
